Consider 15 compounds from patent US20230140430A1, “1H-PYRAZOLO[4,3-d]PYRIMIDINE COMPOUNDS AS TOLL-LIKE RECEPTOR 7 (TLR7) AGONISTS” (BRISTOL-MYERS SQUIBB COMPANY, priority 2020, published 2023).

Where two headings read alike, the source gives them in different places.

By EC50 is commonly meant the concentration needed to bring the measured effect to its halfway point.

For one assay, the system named is CD69. Kind of assay: Induction of CD69 in human whole blood. The format is cell-based. On the procedure: The induction of Type I interferon (IFN) MX-1 genes and the B-cell activation marker CD69 are downstream events that occur upon activation of the TLR7 pathway. The following is a human whole blood assay that measures their induction in response to a TLR7 agonist.
Heparinized human whole blood was harvested from human subjects and treated with test TLR7 agonist compounds at 1 mM. The blood was diluted with RPMI 1640 media and Echo was used to predot 10 nL per well giving a final concentration of 1 uM (10 nL in 10 uL of blood). After mixing on a shaker for 30 sec, the plates were covered and placed in a 37° C. chamber for o/n=17 hrs. Fixing/lysis buffer was prepared (5×->1× in H2O, warm at 37° C.; Cat #BD 558049) and kept the perm buffer (on ice) for later use.
For surface markers staining (CD69): prepared surface Abs: 0.045 ul hCD14-FITC (ThermoFisher Cat #MHCD1401)+0.6 ul hCD19-ef450 (ThermoFisher Cat #48-0198-42)+1.5 ul hCD69-PE (cat #BD555531)+0.855 ul FACS buffer. Added 3 ul/well, spin1000 rpm for 1 min and mixed on shaker for 30 sec, put on ice for 30 mins. Stop stimulation after 30 min with 70 uL of prewarmed 1× fix/lysis buffer and use Feliex mate to resuspend (15 times, change tips for each plate) and incubate at 37 C for 10 min.
Centrifuge at 2000 rpm for 5 min aspirate with HCS plate washer, mix on shaker for 30 sec and then wash with 70 uL in dPBS and pelleted 2×s (2000 rpm for 5 min) and 50 ul wash in FACS buffer pelleted 1×s (2000 rpm for 5 min). Mix on shaker for 30 sec. For Intracellular markers staining (MX-1): Add 50 ul of BD Perm buffer III and mix on shaker for 30 sec. Incubate on ice for 30 minutes (in the dark). Wash with 50 uL of FACS buffer 2× (spin @2300 rpm×5 min after perm) followed by mixing on shaker for 30 sec. Resuspended in 20 ul of FACS buffer containing MX1 antibody ( )(4812)-Alexa 647: Novus Biologicals #NBP2-43704AF647) 20 ul FACS bf+0.8 ul hlgG+0.04 ul MX-1. Spin 1000 rpm for 1 min, mix on shaker for 30se and the samples were incubated at RT in the dark for 45 minutes followed by washing 2×FACS buffer (spin @2300 rpm×5 min after perm). Resuspend 20 ul (35 uL total per well) of FACS buffer and cover with foil and place in 4° C. to read the following day. Plates were read on iQuePlus. The results were loaded into toolset and […] curves are generated in curve master. The y-axis 100% is set to 1 uM of resiquimod.

The target in the next assay is T1, human TLR7 (Homo sapiens, UniProt Q9NYK1).
T1 construct: host or cells: HEK-Blue TLR7 cells (engineered human embryonic kidney cells)
T1 sequence (Q9NYK1 27-1049): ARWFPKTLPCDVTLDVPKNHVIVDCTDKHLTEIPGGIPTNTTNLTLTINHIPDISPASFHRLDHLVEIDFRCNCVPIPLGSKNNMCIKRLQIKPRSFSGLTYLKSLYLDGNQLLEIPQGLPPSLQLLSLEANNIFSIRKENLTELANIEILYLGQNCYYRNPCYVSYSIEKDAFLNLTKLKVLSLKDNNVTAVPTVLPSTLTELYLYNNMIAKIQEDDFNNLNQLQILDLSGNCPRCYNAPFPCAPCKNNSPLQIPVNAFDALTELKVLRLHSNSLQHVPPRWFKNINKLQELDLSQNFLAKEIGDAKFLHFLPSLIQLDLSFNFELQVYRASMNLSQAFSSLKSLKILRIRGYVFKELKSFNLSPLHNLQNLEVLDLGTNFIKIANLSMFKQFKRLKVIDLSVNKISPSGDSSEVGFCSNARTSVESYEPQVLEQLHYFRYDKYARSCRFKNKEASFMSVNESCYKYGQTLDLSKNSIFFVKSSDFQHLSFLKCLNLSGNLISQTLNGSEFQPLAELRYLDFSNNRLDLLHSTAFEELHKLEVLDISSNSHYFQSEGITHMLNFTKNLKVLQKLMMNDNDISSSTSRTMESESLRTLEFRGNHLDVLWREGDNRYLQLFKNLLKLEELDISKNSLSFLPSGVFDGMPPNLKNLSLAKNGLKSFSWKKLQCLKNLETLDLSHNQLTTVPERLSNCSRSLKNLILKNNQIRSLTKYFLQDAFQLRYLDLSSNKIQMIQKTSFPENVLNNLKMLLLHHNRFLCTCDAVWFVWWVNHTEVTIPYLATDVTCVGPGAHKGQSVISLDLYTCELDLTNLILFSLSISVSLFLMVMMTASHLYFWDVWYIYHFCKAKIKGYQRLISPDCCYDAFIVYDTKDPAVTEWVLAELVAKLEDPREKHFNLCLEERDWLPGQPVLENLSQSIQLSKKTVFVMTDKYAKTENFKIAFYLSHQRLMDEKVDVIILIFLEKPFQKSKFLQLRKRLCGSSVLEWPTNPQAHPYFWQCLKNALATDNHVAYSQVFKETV
Kind of assay: Human TLR7 agonist activity assay (HEK-Blue TLR7 SEAP reporter). The format is cell-based. The following applies: HEK-Blue TLR7 cells, 18 h treatment, average where assay was performed multiple times, read-out: hTLR7 Agonism EC50.

Setting [1] is: human whole blood, 17 hrs, CD69 surface staining, 100% set to 1 uM of resiquimod, average where assay was performed multiple times, read-out: hWB CD69 EC50.
The mark [2] stands for this setting: Homo sapiens, 17 h, read-out: hWB CD69 EC50 (nM).

Description for human TLR7: This procedure describes a method for assaying human TLR7 (hTLR7) agonist activity of the compounds disclosed in this specification.
HEK-Blue™ TLR7 cells were added to each well of a 384-well tissue-culture plate (15,000 cells per well) and incubated 16-18 h at 37° C., 5% CO2. Compounds (100 nl) were dispensed into wells containing the HEK-Blue™ TLR cells and the treated cells were incubated at 37° C., 5% CO2. After 18 h treatment ten microliters of freshly-prepared Quanti-Blue™ reagent (Invivogen) was added to each well, incubated for 30 min (37° C., 5% CO2) and SEAP levels measured using an Envision plate reader (OD=620 nm).

On to `CCCCNc1nc(N)nc2c(C)nn(Cc3ccc(C(=O)N4CCNC(=O)C4)cc3OC)c12` [Compound 119, 4-(4-{[5-amino-7-(butylamino)-3-methyl-1H-pyrazolo[4,3-d]pyrimidin-1-yl]methyl}-3-methoxybenzoyl)piperazin-2-one], for which the EC50 in the assay with CD69 (setting [1]) was 332 nM; on human TLR7 it was 968 nM.
As to `CCCCNc1nc(N)nc2cnn(Cc3ccc(C(=O)N4CCN(CCO)CC4)cc3OC(F)F)c12` [Compound 120, 2-[4-(4-{[5-amino-7-(butylamino)-1H-pyrazolo[4,3-d]pyrimidin-1-yl]methyl}-3-(difluoromethoxy)benzoyl)piperazin-1-yl]ethan-1-ol], the EC50 came out at 94.6 nM with CD69 (setting [1]) and 1200 nM on human TLR7.
Consider `CCCCNc1nc(N)nc2cnn(Cc3ccc(C(=O)NC4CCN(C)CC4)cc3OC3CC3)c12` [Compound 121, 4-{[5-amino-7-(butylamino)-1H-pyrazolo[4,3-d]pyrimidin-1-yl]methyl}-3-cyclopropoxy-N-(1-methylpiperidin-4-yl)benzamide], for which the 50% effective concentration (EC50) with CD69 (setting [2]) stood at 99.1 nM; on human TLR7, 502 nM.
Consider `CCCCNc1nc(N)nc2cnn(Cc3ccc(C(=O)N4CCN(CCO)CC4)cc3OC3CC3)c12` [Compound 122, 2-[4-(4-{[5-amino-7-(butylamino)-1H-pyrazolo[4,3-d]pyrimidin-1-yl]methyl}-3-cyclopropoxybenzoyl)piperazin-1-yl]ethan-1-ol], for which the EC50 with CD69 (setting [1]) was 340 nM; at human TLR7, 1190 nM.
Consider `CCC[C@@H](CCO)Nc1nc(N)nc2cnn(Cc3ccc(C(=O)N4CCN(CCO)CC4)cc3OC)c12` [Compound 123, (3S)-3-{[5-amino-1-({4-[4-(2-hydroxyethyl)piperazine-1-carbonyl]-2-methoxyphenyl}methyl)-1H-pyrazolo[4,3-d]pyrimidin-7-yl]amino}hexan-1-ol], for which the EC50 is 71.9 nM in the assay on CD69 (setting [1]) and 115 nM at human TLR7.
For `CCC1CC(CNc2nc(N)nc3cnn(Cc4ccc(C(=O)NC5CCN(C)CC5)cc4OC)c23)C1` (stereo not drawn) [Compound 124, 4-[(5-amino-7-{[(3-ethylcyclobutyl)methyl]amino}-1H-pyrazolo[4,3-d]pyrimidin-1-yl)methyl]-3-methoxy-N-(1-methylpiperidin-4-yl)benzamide], the EC50 in the assay on CD69 (setting [2]) turned out to be 95.4 nM; on human TLR7, 508 nM.
For the compound `CCC[C@@H](CCO)Nc1nc(N)nc2cnn(Cc3ccc(C(=O)NC4CCN(C)CC4)cc3OC)c12` [Compound 125, 4-[(5-amino-7-{[(3S)-1-hydroxyhexan-3-yl]amino}-1H-pyrazolo[4,3-d]pyrimidin-1-yl)methyl]-3-methoxy-N-(1-methylpiperidin-4-yl)benzamide], the EC50 came to 332 nM in the assay with CD69 (setting [2]) and 747 nM at human TLR7.
Take `CCC[C@@H](CO)Nc1nc(N)nc2cnn(Cc3ccc(C(=O)NC4CCN(C)CC4)cc3OC)c12` [Compound 126, 4-[(5-amino-7-{[(2S)-1-hydroxypentan-2-yl]amino}-1H-pyrazolo[4,3-d]pyrimidin-1-yl)methyl]-3-methoxy-N-(1-methylpiperidin-4-yl)benzamide]: the results for the EC50 in the assay on CD69 (setting [2]) and on human TLR7 were 326 nM and 5000 nM, respectively.
Turning to `COc1cc(C(=O)N2CCN(CCO)CC2)ccc1Cn1ncc2nc(N)nc(NCc3cc(C)on3)c21` [Compound 127, 2-(4-{4-[(5-amino-7-{[(5-methyl-1,2-oxazo1-3-yl)methyl]amino}-1H-pyrazolo[4,3-d]pyrimidin-1-yl)methyl]-3-methoxybenzoyl}piperazin-1-yl)ethan-1-ol], the EC50 with CD69 (setting [1]) came out at 173 nM; at human TLR7, 505 nM.
In the case of `CCC[C@@H](CCO)Nc1nc(N)nc2c(F)nn(Cc3ccc(C(=O)NC4CCN(C)CC4)cc3OC)c12` [Compound 128, 4-[(5-amino-3-fluoro-7-{[(3S)-1-hydroxyhexan-3-yl]amino}-1H-pyrazolo[4,3-d]pyrimidin-1-yl)methyl]-3-methoxy-N-(1-methylpiperidin-4-yl)benzamide], the results for the concentration giving a half-maximal response (EC50) in the assay with CD69 (setting [2]) and at human TLR7 were 772 nM and 179 nM, respectively.
The corresponding values for `COc1cc(C(=O)NC2CCN(C)CC2)ccc1Cn1ncc2nc(N)nc(NCc3cc(C)on3)c21` [Compound 129, 4-[(5-amino-7-{[(5-methyl-1,2-oxazo1-3-yl)methyl]amino}-1H-pyrazolo[4,3-d]pyrimidin-1-yl)methyl]-3-methoxy-N-(1-methylpiperidin-4-yl)benzamide] are 67.7 nM and 1240 nM.
Regarding `COc1cc(C(=O)N2CCN(C)CC2)ccc1Cn1ncc2nc(N)nc(NCc3cc(C)on3)c21` [Compound 130, 1-{[2-methoxy-4-(4-methylpiperazine-1-carbonyl)phenyl]methyl}-N7-[(5-methyl-1,2-oxazo1-3-yl)methyl]-1H-pyrazolo[4,3-d]pyrimidine-5,7-diamine], the results for the EC50 in the assay on CD69 (setting [1]) and at human TLR7 were 15.8 nM and 145 nM, respectively.
For `COc1cc(C(=O)N2CCNC(=O)C2)ccc1Cn1ncc2nc(N)nc(NCc3cc(C)on3)c21` [Compound 131, 4-{4-[(5-amino-7-{[(5-methyl-1,2-oxazo1-3-yl)methyl]amino}-1H-pyrazolo[4,3-d]pyrimidin-1-yl)methyl]-3-methoxybenzoyl}piperazin-2-one], in that order: 363 nM and 2190 nM.
For `COc1cc(C(=O)N2CCN(C)CC2)ccc1Cn1ncc2nc(N)nc(NCc3noc(C)n3)c21` [Compound 132, 1-{[2-methoxy-4-(4-methylpiperazine-1-carbonyl)phenyl]methyl}-N7-[(5-methyl-1,2,4-oxadiazo1-3-yl)methyl]-1H-pyrazolo[4,3-d]pyrimidine-5,7-diamine], the EC50 in the assay with CD69 (setting [1]) came to 10.9 nM; at human TLR7, 95.1 nM.
Take `COc1cc(C(=O)N2CCN(CCO)CC2)ccc1Cn1ncc2nc(N)nc(NCc3noc(C)n3)c21` [Compound 133, 2-(4-{4-[(5-amino-7-{[(5-methyl-1,2,4-oxadiazo1-3-yl)methyl]amino}-1H-pyrazolo[4,3-d]pyrimidin-1-yl)methyl]-3-methoxybenzoyl}piperazin-1-yl)ethan-1-ol]: the EC50 in the assay on CD69 (setting [1]) is 552 nM; on human TLR7, 1870 nM.
